Laboratory results as given in patent US20110098314A1, “STATINS FOR THE TREATMENT OF OCULAR HYPERTENSION AND GLAUCOMA” (ALCON, INC., priority 2005, published 2011).

Columns and labels:
[1] = system: CTGF gene expression in cultured human trabecular meshwork (TM) cells; assay: Inhibition of TGFβ2 stimulated CTGF gene expression (QPCR, CTGF/18S cDNA); type: cell-based
Experimental: FIGS. 1-3 are graphs setting forth the effects of statins on basal and TGFβ2-induced CTGF gene expression in cultured human trabecular meshwork cells.
The effectiveness of statins on CTGF gene expression in cultured human trabecular meshwork (TM) cells was studied. In these experiments, the CTGF/18S cDNA levels were measured by quantitative reverse-transcription PCR (QPCR) and compared.

[2] = system: intraocular pressure; details: administered orally for at least one year; cited from earlier work
[3] = system: intraocular pressure; assay: Acute IOP response in lasered (hypertensive) eyes of conscious cynomolgus monkeys; type: in vivo, cynomolgus monkey; details: single topical ocular application of 300 μg; IOP at 1, 3 and 6 hours
Experimental: Acute IOP Response in Lasered (Hypertensive) Eyes of Conscious Cynomolgus Monkeys.
Intraocular pressure (IOP) was determined with an Alcon Pneumatonometer after light corneal anesthesia with 0.1% proparacaine. Eyes were washed with saline after each measurement. After a baseline IOP measurement, the test compound was instilled in one 30 μL aliquot to the right eyes only of nine cynomolgus monkeys. The vehicle was instilled in the right eyes of six additional animals. Subsequent IOP measurements were taken at 1, 3, and 6 hours.

[4] = Penetration of the cornea following topical ocular administration; type: in vivo
Description: The use of topical ocular administration is therefore strongly preferred in the present invention.

[5] = system: fibronectin secretion by GTM-3 cells; assay: Inhibition of TM fibronectin secretion (ELISA of cell supernatants); type: cell-based, human; details: 24 h, FIG. 5
Experimental: (§1) FIG. 5 depicts bar graphs showing the effect of lovastatin on GTM-3 cell fibronectin secretion and viability. Transformed human trabecular meshwork (GTM-3) cells were incubated in the presence or absence of test agents in serum-free DMEM media for 24 h (37° C., 5% CO2). Cell supernatants were then assayed for fibronectin content by ELISA and cell monolayers were assayed for viability by neutral red uptake.
(§2) The effect of lovastatin on both basal (vehicle) and stimulated (TGF32) GTM-3 (a transformed human TM cell strain) secretion of fibronectin was tested. GTM-3 cells were incubated in the presence or absence of test agents in serum-free media for 24 h (37° C., 5% CO2), then changes in secreted fibronectin levels were determined by ELISA of cell supernatants. Neutral red uptake assays were performed on the remaining cell monolayers, in order to determine the effect of test agents on GTM-3 cell viability. […] Thus, by virtue of the ability to reduce the excessive accumulation of extracellular matrix (e.g. fibronectin), statins are useful in the treatment of glaucoma and to control or lower IOP.

[6] = system: GTM-3 cells; assay: GTM-3 cell viability (neutral red uptake); type: cell-based, human; details: 24 h, FIG. 5
Experimental: as §1, §2

[7] = system: intraocular pressure; assay: IOP response in lasered (hypertensive) eyes of conscious cynomolgus monkeys following repeated dosing; type: in vivo, cynomolgus monkey
Experimental: Response in Lasered (Hypertensive) Eyes of Conscious Cynomolgus Monkeys Following Repeated Dosing.
In a further study, the intraocular pressure-lowering efficacy of lovastatin was measured in conscious ocular hypertensive monkeys using a five-dose, three-day study design. The test item was administered in one 30 μL aliquot to the lasered (unilateral laser trabeculoplasty) eye of eight animals. The vehicle was instilled in the lasered eyes of six additional animals as a control. Doses 1, 3, and 5 were instilled at 0900 hours on three consecutive days; doses 2 and 4 at 1630 hours on days 1 and 2. IOP was measured at 1, 3 and 6 hours after doses 1 and 5. IOP was also measured at 16 hours after dose 4. The percent change from time 0 baseline was determined for each animal for every IOP measurement.
There was an average reduction in IOP of 12.5% in the control group. In a subsequent study, wherein nine doses of lovastatin were administered over a five day period, IOP was reduced by up to 7.4%.

[8] = 1 hour after fifth topical ocular instillation of 300 μg
[9] = 3 hours after fifth topical ocular instillation of 300 μg
[10] = 6 hours after fifth topical ocular instillation of 300 μg

| Structure (SMILES) | CTGF gene expression by cultured human TM cells [1] | change in intraocular pressure in patients [2] | IOP lowering after single topical ocular application [3] | ability to reach intraocular tissues via penetration of the cornea [4] | also measured |
| --- | --- | --- | --- | --- | --- |
| CCC(C)(C)C(=O)O[C@H]1C[C@@H](C)C=C2C=C[C@H](C)[C@H](CC[C@@H]3C[C@@H](O)CC(=O)O3)[C@H]21 [simvastatin, 2,2-dimethyl-butanoic acid (1S,3R,7S,8S,8aR)-1,2,3,7,8,8a-hexahydro-3,7-dimethyl-8-[2-[(2R,4R)-tetrahydro-4-hydroxy-6-oxo-2H-pyran-2-yl]ethyl]-1-naphthalenyl ester] | significantly reduce | no clinically significant change in intraocular pressure |  |  |  |
| CC(C)n1c(/C=C/[C@@H](O)C[C@@H](O)CC(=O)O)c(-c2ccc(F)cc2)c2ccccc21 (relative stereo) [fluvastatin, (3R,5S,6E)-rel-7-[3-(4-fluorophenyl)-1-(1-methylethyl)-1H-indol-2-yl]-3,5-dihydroxy-6-heptenoic acid] |  |  | did not significantly lower IOP |  |  |
| CC[C@H](C)C(=O)O[C@H]1CCC=C2C=C[C@H](C)[C@H](CC[C@@H]3C[C@@H](O)CC(=O)O3)[C@H]21 [mevastatin, (2S)-2-methyl butanoic acid (1S,7S,8S,8aR)-1,2,3,7,8,8a-hexahydro-7-methyl-8-[2-[(2R,4R)-tetrahydro-4-hydroxy-6-oxo-2H-pyran-2-yl]ethyl]-1-naphthalenyl ester] | significantly reduce |  |  |  |  |
| CC[C@H](C)C(=O)O[C@H]1C[C@H](O)C=C2C=C[C@H](C)[C@H](CC[C@@H](O)CC(O)CC(=O)O)[C@H]21 (stereo in doubt) [pravastatin, (βR,δR,1S,2S,6S,8S,8aR)-1,2,6,7,8,8a-hexahydro-β,δ,6-trihydroxy-2-methyl-8-[(2S)-2-methyl-1-oxobutoxy]-1-naphthaleneheptanoic acid] |  |  | did not significantly lower IOP | able to reach intraocular tissues via penetration of the cornea |  |
| CC[C@H](C)C(=O)O[C@H]1C[C@@H](C)C=C2C=C[C@H](C)[C@H](CC[C@@H]3C[C@@H](O)CC(=O)O3)[C@H]21 [lovastatin, 2(S)-2-methyl-butanoic acid (1S,3R,7S,8S,8aR)-1,2,3,7,8,8a-hexahydro-3,7-dimethyl-8-[2-[(2R,4R)-tetrahydro-4-hydroxy-6-oxo-2H-pyran-2-yl]ethyl]-1-naphthalenyl ester] | significantly reduce | no clinically significant change in intraocular pressure | did not significantly lower IOP |  | IC50 ([1]; dose-dependent, FIG. 3): 0.075 µM; TGFβ2-stimulated fibronectin secretion ([5]; serum-free media): suppressed; basal fibronectin secretion ([5]; vehicle (basal)): suppression; GTM-3 cell viability [6]: without affecting cell viability; average IOP lowering [7, 8]: 8.3 mmHg; average IOP lowering, percent change from baseline [7, 8]: 22.8%; average IOP lowering [7, 9]: 8.1 mmHg; average IOP lowering, percent change from baseline [7, 9]: 21.5%; average IOP lowering [7, 10]: 9.5 mmHg; average IOP lowering, percent change from baseline [7, 10]: 25.5%; IOP reduction ([7]; subsequent study, nine doses over a five day period): up to 7.4% |
| CC(C)c1c(C(=O)Nc2ccccc2)c(-c2ccccc2)c(-c2ccc(F)cc2)n1CC[C@@H](O)C[C@@H](O)CC(=O)O (relative stereo) [atorvastatin, (βR,δR)-2-(4-fluorophenyl)-β,δ-dihydroxy-5-(1-methylethyl)-3-phenyl-4-[(phenylamino)carbonyl]-1H-Pyrrole-1-heptanoic acid] |  |  | did not significantly lower IOP | do not readily penetrate the cornea |  |
